Source: US10670605B2, “Cysteine reactive probes and uses thereof” (The Scripps Research Institute, priority 2015, dated 2020)

Key:
[1] = target: T1, KDM3A C251 (Q9Y4C1) (Homo sapiens, UniProt Q9Y4C1); assay: Competitive isoTOP-ABPP, cell lysates; assay type: binding; settings: for R value (DMSO/fragment): 500 μM
T1 sequence (Q9Y4C1 1-1321): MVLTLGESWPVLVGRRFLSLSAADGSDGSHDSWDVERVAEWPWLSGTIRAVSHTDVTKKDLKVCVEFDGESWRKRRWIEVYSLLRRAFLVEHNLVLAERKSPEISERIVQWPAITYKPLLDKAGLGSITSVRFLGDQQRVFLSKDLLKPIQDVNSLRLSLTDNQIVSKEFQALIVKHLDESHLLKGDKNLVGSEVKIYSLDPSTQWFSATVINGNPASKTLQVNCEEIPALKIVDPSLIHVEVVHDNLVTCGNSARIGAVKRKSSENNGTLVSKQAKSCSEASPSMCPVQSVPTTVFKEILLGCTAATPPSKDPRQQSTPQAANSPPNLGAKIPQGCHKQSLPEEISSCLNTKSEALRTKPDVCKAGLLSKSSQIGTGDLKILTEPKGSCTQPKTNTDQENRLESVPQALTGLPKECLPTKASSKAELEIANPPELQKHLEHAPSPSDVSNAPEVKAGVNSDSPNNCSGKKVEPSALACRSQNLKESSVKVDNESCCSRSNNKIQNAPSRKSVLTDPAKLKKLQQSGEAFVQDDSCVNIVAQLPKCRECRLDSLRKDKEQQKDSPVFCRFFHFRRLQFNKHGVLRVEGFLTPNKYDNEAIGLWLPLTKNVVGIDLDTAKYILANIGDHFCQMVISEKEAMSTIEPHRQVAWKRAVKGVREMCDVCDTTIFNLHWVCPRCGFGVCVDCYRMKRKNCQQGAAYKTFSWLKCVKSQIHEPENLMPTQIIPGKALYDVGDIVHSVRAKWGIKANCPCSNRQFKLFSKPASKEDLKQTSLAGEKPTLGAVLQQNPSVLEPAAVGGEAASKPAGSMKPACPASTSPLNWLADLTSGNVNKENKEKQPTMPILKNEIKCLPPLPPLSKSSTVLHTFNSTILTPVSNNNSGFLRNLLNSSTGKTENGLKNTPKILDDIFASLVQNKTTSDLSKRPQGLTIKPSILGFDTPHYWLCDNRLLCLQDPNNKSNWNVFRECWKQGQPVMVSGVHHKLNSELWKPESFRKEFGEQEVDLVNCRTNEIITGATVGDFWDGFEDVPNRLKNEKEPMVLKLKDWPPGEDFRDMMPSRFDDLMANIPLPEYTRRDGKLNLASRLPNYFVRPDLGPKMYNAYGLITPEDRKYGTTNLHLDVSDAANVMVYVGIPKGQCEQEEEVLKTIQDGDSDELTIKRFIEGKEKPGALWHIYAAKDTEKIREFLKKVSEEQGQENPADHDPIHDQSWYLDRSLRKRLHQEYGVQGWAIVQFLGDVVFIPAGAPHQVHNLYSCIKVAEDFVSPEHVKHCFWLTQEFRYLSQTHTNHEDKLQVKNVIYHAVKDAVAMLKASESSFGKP

[2] = target: T2, ZAP70 C117 (P43403) (Homo sapiens, UniProt P43403); assay: Competitive isoTOP-ABPP, cell lysates; assay type: binding; settings: for isoTOP-ABPP ratio, P43403_C117: 500 μM, invitro; for isoTOP-ABPP ratio (reactivity profile), P43403_C117: 500 μm in-vitro ramos
T2 sequence (P43403 1-619): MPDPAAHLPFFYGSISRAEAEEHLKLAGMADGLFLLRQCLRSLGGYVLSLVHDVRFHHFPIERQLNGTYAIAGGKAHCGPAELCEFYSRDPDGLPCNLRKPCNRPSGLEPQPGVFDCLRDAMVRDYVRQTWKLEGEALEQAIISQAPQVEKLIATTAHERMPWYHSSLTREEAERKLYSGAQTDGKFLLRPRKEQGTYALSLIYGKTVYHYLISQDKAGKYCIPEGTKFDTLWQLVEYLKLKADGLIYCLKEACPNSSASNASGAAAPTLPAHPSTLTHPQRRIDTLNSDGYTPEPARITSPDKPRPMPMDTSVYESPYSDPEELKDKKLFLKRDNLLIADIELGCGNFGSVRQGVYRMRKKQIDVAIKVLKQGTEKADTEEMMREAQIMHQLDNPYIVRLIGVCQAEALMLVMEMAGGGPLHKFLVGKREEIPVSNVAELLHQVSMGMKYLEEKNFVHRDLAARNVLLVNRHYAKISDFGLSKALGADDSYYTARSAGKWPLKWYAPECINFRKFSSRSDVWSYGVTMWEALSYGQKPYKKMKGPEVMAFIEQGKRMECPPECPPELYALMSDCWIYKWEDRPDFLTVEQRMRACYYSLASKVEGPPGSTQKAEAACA

In the case of `O=C(CCl)Nc1cc(C(F)(F)F)cc(C(F)(F)F)c1` [compound 3], the “R value (DMSO/fragment)” value ([1]; in vitro, MDA-MB-231) was 4.4 and the “R value (DMSO/fragment)” value ([1]; invitro, ramos) was 4.0.
`O=C(CCl)N1CCN(S(=O)(=O)c2ccccc2F)CC1` [compound 10] was tested, and the “isoTOP-ABPP ratio, P43403_C117” value [2]; 231 was 20.0 and the “isoTOP-ABPP ratio, P43403_C117” value ([2]; ramos) was 20.0.
`C=CC(=O)N(Cc1cccnc1)c1ccc(Oc2ccccc2)c(C(F)(F)F)c1` [compound 15] was tested, and the “isoTOP-ABPP ratio (reactivity profile), P43403_C117” value [2] was 20.0.
In the case of `O=C(CCl)N1CCC(C(O)(c2ccccc2)c2ccccc2)CC1` [compound 20], the “isoTOP-ABPP ratio (reactivity profile), P43403_C117” value [2] was 20.0.
In the case of `O=C(CCl)NC12CC3CC(CC(C3)C1)C2` [compound 21], the “isoTOP-ABPP ratio (reactivity profile), Q9Y4C1_C251” value ([1]; 500 μm in-vitro ramos_231) was 0.7.
In the case of `CC(Br)C(=O)Nc1cc(C(F)(F)F)cc(C(F)(F)F)c1` (stereo not shown) [compound 24], the “isoTOP-ABPP ratio (reactivity profile), Q9Y4C1_C251” value ([1]; 500 μm in-vitro ramos) was 1.3.
For `COc1ccccc1OCCNC(=O)CCl` [compound 28], the “isoTOP-ABPP ratio (reactivity profile), P43403_C117” value [2] was 1.1.
`C=CC(=O)N(c1ccccc1)C1CCCCC1` [compound 46] was tested, and the “isoTOP-ABPP reactivity profile ratio, Q9Y4C1_C251” value ([1]; 500 μm, in-vitro_ramos_231) was 1.0.
